Where a name gives a salt, the structure may show the parent alone.

Test [1] deals with Ba/F3 ERBB2 A775_G776insYVMA (Homo sapiens, UniProt P04626, DUP772-775, cells depend on it). Kind of test: Cell viability assay, Ba/F3 ERBB2 A775_G776insYVMA. It counts as cell-based, mouse. The following applies: Ba/F3 ERBB2 YVMA cells, cell viability, 72 hours, CellTiter Glo; Table B5; read-out: Ba/F3 ERBB2 YVMA, IC50. An outline of the steps:
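Viability after 72 h compound treatment (37 °C, 5% CO2) was quantified by CellTiter-Glo luminescence of intracellular ATP, with sigmoidal dose-response fitting. Cells were retrovirally engineered Ba/F3 lines whose growth depends on the mutant human ERBB2 in place of IL-3, plated at 3000 per well.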
Background: ATP-based viability assays read luminescence as a measure of living cells.

The target in test [2] is T1, phosphorylated ERBB2 (pERBB2) (Homo sapiens, UniProt P04626).
T1 construct: endogenous in cells; host or cells: BT-474
T1 sequence (P04626 23-1255): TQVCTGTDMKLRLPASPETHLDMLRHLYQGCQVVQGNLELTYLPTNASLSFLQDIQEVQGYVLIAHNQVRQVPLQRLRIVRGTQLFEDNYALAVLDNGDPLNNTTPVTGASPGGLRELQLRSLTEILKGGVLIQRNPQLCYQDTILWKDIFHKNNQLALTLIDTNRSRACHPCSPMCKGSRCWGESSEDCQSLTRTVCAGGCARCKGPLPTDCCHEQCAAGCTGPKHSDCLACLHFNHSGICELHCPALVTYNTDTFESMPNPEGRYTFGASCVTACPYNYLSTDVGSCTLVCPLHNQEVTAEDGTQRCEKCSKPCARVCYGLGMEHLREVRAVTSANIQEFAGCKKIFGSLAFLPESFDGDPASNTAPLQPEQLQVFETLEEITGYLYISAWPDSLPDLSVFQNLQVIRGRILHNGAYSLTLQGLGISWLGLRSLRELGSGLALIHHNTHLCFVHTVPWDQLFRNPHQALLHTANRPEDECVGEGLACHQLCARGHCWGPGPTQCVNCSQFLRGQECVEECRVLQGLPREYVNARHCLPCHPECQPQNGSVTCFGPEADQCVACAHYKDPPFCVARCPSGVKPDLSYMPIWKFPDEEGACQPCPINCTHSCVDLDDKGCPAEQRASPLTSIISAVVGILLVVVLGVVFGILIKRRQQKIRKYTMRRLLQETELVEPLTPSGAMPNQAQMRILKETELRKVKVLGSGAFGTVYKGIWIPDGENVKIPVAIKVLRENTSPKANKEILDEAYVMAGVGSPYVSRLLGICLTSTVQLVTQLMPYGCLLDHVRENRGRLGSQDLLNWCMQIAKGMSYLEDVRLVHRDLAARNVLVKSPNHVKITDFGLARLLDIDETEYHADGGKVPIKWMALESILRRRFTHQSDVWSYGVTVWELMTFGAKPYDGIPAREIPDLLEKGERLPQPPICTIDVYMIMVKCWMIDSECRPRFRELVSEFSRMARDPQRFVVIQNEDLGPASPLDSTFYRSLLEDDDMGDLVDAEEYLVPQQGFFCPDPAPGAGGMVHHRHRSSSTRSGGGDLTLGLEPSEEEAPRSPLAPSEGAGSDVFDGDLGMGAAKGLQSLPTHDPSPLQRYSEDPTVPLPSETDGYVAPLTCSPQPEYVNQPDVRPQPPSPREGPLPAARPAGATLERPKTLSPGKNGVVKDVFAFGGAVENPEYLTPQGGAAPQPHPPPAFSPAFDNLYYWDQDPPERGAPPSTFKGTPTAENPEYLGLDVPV
Kind of test: Detection of phosphorylated ERBB2 (pERBB2) by ELISA in BT-474 cells. The format is cell-based. The following applies: four hours incubation. Put shortly: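 Phospho-ERBB2 in lysates was quantified by sandwich ELISA (A450, TMB) after 4 h compound exposure at 37 °C of BT-474 cells seeded at 2.0×10^4 per well. Compounds tested at 10 µM to 0.01 nM final in four-fold steps; activity normalized to DMSO (0.1%) high and cell-free low controls.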
On the technique in general: An ELISA detects its analyte on a solid surface through an enzyme-linked reagent.

Test [3] concerns the target T2, phosphorylated EGFR (pEGFR) (Homo sapiens, UniProt P00533).
T2 construct: performed to measure phosphorylated EGFR levels using A431 cells (10% FBS); endogenous in cells; host or cells: A431
Kind of test: Detection of phosphorylated EGFR (pEGFR) in EGF-stimulated A431 cells. The format is cell-based. To be noted: A431 cells (10% FBS), 4 hours incubation, EGF 30 ng/mL 10 minutes, AlphaLISA. An outline of the steps:
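AlphaLISA read-out of EGFR phosphorylation after a 10-min EGF pulse (30 ng/mL final). A431 cells (10% FBS) had been exposed to compound for 4 h at 37 °C. IC50 was fitted from % inhibition normalised to DMSO and staurosporine control lysates.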
(In general: In Alpha technology, singlet oxygen from a donor bead excites a nearby acceptor bead.)

Ba/F3 ERBB2 A775_G776insYVMA, sequence (P04626 with tags, fused parts or gaps DUP772-775): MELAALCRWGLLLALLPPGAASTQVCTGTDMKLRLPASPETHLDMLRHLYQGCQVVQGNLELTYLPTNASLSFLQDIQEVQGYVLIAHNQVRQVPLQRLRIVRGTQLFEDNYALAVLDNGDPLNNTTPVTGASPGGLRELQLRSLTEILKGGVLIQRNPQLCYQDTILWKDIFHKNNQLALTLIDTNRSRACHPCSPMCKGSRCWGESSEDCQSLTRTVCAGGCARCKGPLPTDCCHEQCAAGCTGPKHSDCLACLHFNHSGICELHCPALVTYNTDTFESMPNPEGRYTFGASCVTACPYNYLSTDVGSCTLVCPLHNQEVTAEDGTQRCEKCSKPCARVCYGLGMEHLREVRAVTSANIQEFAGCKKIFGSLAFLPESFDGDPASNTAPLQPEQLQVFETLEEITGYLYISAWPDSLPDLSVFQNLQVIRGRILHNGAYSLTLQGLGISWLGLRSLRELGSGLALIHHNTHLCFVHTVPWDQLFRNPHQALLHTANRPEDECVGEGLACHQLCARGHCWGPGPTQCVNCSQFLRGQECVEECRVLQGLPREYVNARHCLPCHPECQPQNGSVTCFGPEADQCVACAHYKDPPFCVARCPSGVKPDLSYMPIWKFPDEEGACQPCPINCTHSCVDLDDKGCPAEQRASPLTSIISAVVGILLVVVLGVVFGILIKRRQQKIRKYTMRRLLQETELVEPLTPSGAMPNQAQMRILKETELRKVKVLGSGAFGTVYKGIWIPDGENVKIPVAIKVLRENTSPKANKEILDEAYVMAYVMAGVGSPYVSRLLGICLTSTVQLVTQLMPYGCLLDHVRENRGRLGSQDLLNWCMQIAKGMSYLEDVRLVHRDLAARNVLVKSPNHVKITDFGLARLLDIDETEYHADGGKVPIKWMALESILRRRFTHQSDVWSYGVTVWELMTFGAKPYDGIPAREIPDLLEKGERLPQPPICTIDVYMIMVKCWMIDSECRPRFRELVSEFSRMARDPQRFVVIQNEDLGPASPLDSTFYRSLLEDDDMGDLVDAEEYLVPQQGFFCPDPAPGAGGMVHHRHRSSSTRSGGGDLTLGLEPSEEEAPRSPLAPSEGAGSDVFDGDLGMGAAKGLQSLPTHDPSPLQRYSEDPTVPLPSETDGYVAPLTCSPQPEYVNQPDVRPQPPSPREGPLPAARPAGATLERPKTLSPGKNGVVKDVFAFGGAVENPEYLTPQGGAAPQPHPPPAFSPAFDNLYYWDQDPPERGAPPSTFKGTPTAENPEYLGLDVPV
T2 sequence (P00533 25-1210): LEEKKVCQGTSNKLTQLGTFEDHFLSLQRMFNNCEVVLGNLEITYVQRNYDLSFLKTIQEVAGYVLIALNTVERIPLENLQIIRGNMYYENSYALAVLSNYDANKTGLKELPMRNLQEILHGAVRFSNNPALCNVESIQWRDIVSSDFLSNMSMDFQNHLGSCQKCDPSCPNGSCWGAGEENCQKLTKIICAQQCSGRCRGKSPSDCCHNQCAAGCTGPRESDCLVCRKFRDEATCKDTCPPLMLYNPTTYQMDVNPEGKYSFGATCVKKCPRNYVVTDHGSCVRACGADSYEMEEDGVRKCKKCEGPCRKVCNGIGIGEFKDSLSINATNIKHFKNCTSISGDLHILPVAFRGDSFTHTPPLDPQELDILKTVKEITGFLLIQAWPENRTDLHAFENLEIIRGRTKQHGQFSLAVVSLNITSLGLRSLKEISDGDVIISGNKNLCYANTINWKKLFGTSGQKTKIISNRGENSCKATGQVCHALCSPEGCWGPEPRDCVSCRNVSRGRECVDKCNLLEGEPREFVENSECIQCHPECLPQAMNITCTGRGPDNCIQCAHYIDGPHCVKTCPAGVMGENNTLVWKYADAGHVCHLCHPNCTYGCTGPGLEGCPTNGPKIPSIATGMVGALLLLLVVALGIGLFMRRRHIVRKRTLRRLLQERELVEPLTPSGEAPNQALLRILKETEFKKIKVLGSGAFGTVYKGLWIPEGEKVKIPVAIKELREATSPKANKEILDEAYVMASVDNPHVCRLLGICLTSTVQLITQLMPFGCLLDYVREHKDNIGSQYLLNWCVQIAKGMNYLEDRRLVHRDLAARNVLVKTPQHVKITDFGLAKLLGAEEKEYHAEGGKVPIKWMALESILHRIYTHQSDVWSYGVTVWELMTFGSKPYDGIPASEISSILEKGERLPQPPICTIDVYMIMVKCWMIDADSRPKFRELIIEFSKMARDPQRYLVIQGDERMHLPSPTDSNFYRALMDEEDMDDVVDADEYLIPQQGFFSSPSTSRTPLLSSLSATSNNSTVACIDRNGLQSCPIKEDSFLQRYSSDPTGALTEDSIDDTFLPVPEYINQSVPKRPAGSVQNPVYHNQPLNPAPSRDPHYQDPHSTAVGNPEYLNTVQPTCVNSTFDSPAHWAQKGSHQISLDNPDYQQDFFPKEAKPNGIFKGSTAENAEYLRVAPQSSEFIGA

What is called IC50 is the concentration that inhibits the measured activity by half. The low end stands for higher potency, the high end for lower potency. Turning to `CCc1ccc(Oc2ccc(Nc3ncnc4cnc(N5CC/C(=C\CN(C)C)C5=O)cc34)cc2C)cn1` [Compound 73, (E)-3-(2-(dimethylamino)ethylidene)-1-(4-((4-((6-ethylpyridin-3-yl)oxy)-3-methylphenyl)amino)pyrido[3,4-d]pyrimidin-6-yl)pyrrolidin-2-one], the GI50 in test [1] came to 22 nM. Besides, the IC50 in test [2] turned out to be 41.5 nM; in test [3] it was 514 nM.

For `Cc1cc(Nc2ncnc3cnc(N4CC/C(=C\CN(C)C)C4=O)cc23)ccc1Oc1ccn2ncnc2c1` [Compound 74, (3E)-3-[2-(dimethylamino)ethylidene]-1-{4-[(3-methyl-4-{[1,2,4]triazolo[1,5-a]pyridin-7-yloxy}phenyl)amino]pyrido[3,4-d]pyrimidin-6-yl}pyrrolidin-2-one], the GI50 in test [1] was 5.17 nM. For the same compound, the IC50 worked out at 5.43 nM in test [2] and 2970 nM in test [3].

`Cc1ccc(Oc2ccc(Nc3ncnc4cnc(N5CC/C(=C\CN(C)C)C5=O)cc34)cc2C)cn1` [Compound 75, (3E)-3-[2-(dimethylamino)ethylidene]-1-[4-({3-methyl-4-[(6-methylpyridin-3-yl)oxy]phenyl}amino)pyrido[3,4-d]pyrimidin-6-yl]pyrrolidin-2-one]: the GI50 in test [1] came to 10.4 nM. Besides, the concentration for half-maximal inhibition (IC50) in test [2] amounted to 20.4 nM; in test [3], 697 nM.

With `Cc1cc(Nc2ncnc3cnc(N4CC/C(=C\CN(C)C)C4=O)cc23)c(F)cc1Oc1ccc2c(c1)ncn2C` [Compound 76, (3E)-3-[2-(dimethylamino)ethylidene]-1-[4-({2-fluoro-5-methyl-4-[(1-methyl-1,3-benzodiazol-5-yl)oxy]phenyl}amino)pyrido[3,4-d]pyrimidin-6-yl]pyrrolidin-2-one], the GI50 in test [1] was over 500 nM. Moreover, the half-maximal inhibitory concentration (IC50) in test [2] and in test [3] was over 10000 nM each time.

Consider `Cc1c(Oc2ccc3c(c2)ncn3C)ccc(Nc2ncnc3cnc(N4CC/C(=C\CN(C)C)C4=O)cc23)c1F` [Compound 77, (3E)-3-[2-(dimethylamino)ethylidene]-1-[4-({2-fluoro-3-methyl-4-[(1-methyl-1,3-benzodiazol-5-yl)oxy]phenyl}amino)pyrido[3,4-d]pyrimidin-6-yl]pyrrolidin-2-one], for which the GI50 in test [1] is 3.61 nM. Also, the IC50 is 18.4 nM in test [2] and 7490 nM in test [3].

On to `Cc1c(Oc2ccn3ncnc3c2)ccc(Nc2ncnc3ccc(N4CC/C(=C\CN(C)C)C4=O)nc23)c1F` [Compound 78, (3E)-3-[2-(dimethylamino)ethylidene]-1-{4-[(2-fluoro-3-methyl-4-{[1,2,4]triazolo[1,5-a]pyridin-7-yloxy}phenyl)amino]pyrido[3,2-d]pyrimidin-6-yl}pyrrolidin-2-one hydrochloride], for which the GI50 in test [1] turned out to be 9.92 nM. Besides, the results for the IC50 in test [2] and in test [3] were 16.8 nM and 1570 nM, respectively.

For `Cc1cc(Nc2ncnc3ccc(N4CC/C(=C\CN(C)C)C4=O)nc23)c(F)cc1Oc1ccn2ncnc2c1` [Compound 79, (3E)-3-[2-(dimethylamino)ethylidene]-1-{4-[(2-fluoro-5-methyl-4-{[1,2,4]triazolo[1,5-a]pyridin-7-yloxy}phenyl)amino]pyrido[3,2-d]pyrimidin-6-yl}pyrrolidin-2-one], the GI50 in test [1] was determined as 2.92 nM. Also, the values for the IC50 in test [2] and in test [3] were 8.77 nM and over 10000 nM, respectively.

As for `Cc1cc(Nc2ncnc3cnc(N4CC/C(=C\CN(C)C)C4=O)cc23)ccc1Oc1cccnc1` [Compound 80, (3E)-3-[2-(dimethylamino)ethylidene]-1-(4-{[3-methyl-4-(pyridin-3-yloxy)phenyl]amino}pyrido[3,4-d]pyrimidin-6-yl)pyrrolidin-2-one], the GI50 in test [1] is 35.5 nM. Also, the figures for the IC50 in test [2] and in test [3] were 66.1 nM and 704 nM, respectively.

For `Cc1cc(Nc2ncnc3ccc(N4CC/C(=C\CN(C)C)C4=O)nc23)ccc1Oc1ccn2c(C)cnc2c1` [Compound 81, (E)-3-(2-(dimethylamino)ethylidene)-1-(4-((3-methyl-4-((3-methylimidazo[1,2-a]pyridin-7-yl)oxy)phenyl)amino)pyrido[3,2-d]pyrimidin-6-yl)pyrrolidin-2-one], in test [1], the GI50 worked out at 3.86 nM. Besides, the 50% inhibitory concentration (IC50) in test [2] was determined as 72.3 nM; in test [3], 1130 nM.

On to `Cc1cc(Nc2ncnc3cnc(N4CC/C(=C\CN(C)C)C4=O)cc23)ccc1Oc1ccn2c(C)cnc2c1` [Compound 82, (3E)-3-[2-(dimethylamino)ethylidene]-1-(4-{[3-methyl-4-({3-methylimidazo[1,2-a]pyridin-7-yl}oxy)phenyl]amino}pyrido[3,4-d]pyrimidin-6-yl)pyrrolidin-2-one], for which the GI50 in test [1] is 6.39 nM. Also, the half-maximal inhibitory concentration (IC50) in test [2] amounted to 54.1 nM; in test [3], 3990 nM.

For the compound `Cc1cc(Nc2ncnc3ccc(N4CC/C(=C/CN(C)C)C4=O)nc23)ccc1Oc1ccc2c(c1)ncn2C` [Compound 83, (Z)-3-(2-(dimethylamino)ethylidene)-1-(4-((3-methyl-4-((1-methyl-1H-benzo[d]imidazol-5-yl)oxy)phenyl)amino)pyrido[3,2-d]pyrimidin-6-yl)pyrrolidin-2-one], the GI50 in test [1] worked out at 4.73 nM. Also, the 50% inhibitory concentration (IC50) in test [2] is 44.2 nM; in test [3] it was 6030 nM.

With `C=C1CCN(c2nc3c(Nc4ccc(Oc5ccc6c(c5)ncn6C)c(C)c4)ncnc3s2)C1=O` [Compound 84, 1-[7-({3-methyl-4-[(1-methyl-1,3-benzodiazol-5-yl)oxy]phenyl}amino)-[1,3]thiazolo[5,4-d]pyrimidin-2-yl]-3-methylidenepyrrolidin-2-one], the GI50 in test [1] worked out at 45 nM. In addition, the half-maximal inhibitory concentration (IC50) in test [2] is 425 nM; in test [3], over 10000 nM.

`C=C1CCN(c2ccc3ncnc(Nc4ccc(Oc5ccc6c(c5)ncn6C)c(C)c4)c3n2)C1=O` [Compound 87, 1-(4-((3-methyl-4-((1-methyl-1H-benzo[d]imidazol-5-yl)oxy)phenyl)amino)pyrido[3,2-d]pyrimidin-6-yl)-3-methylenepyrrolidin-2-one; formic acid]: the GI50 in test [1] amounted to 23 nM. The values for the IC50 in test [2] and in test [3] were 87.2 nM and 8160 nM, respectively.

`Cc1cc(Nc2ncnc3ccc(N4CC/C(=C\[C@@H]5CCCN5C)C4=O)nc23)ccc1Oc1ccn2ncnc2c1` [Compound 89, (S,E)-1-(4-((4-([1,2,4]triazolo[1,5-a]pyridin-7-yloxy)-3-methylphenyl)amino)pyrido[3,2-d]pyrimidin-6-yl)-3-((1-methylpyrrolidin-2-yl)methylene)pyrrolidin-2-one]: in test [1], the GI50 was 1.87 nM. Also, the concentration for half-maximal inhibition (IC50) was found to be 28.9 nM in test [2] and 699 nM in test [3].

As for `Cc1cc(Nc2ncnc3ccc(N4CC/C(=C\[C@H]5CCCN5C)C4=O)nc23)ccc1Oc1ccn2ncnc2c1` [Compound 90, (R,E)-1-(4-((4-([1,2,4]triazolo[1,5-a]pyridin-7-yloxy)-3-methylphenyl)amino)pyrido[3,2-d]pyrimidin-6-yl)-3-((1-methylpyrrolidin-2-yl)methylene)pyrrolidin-2-one], in test [1], the GI50 amounted to 10.8 nM. The values for the IC50 in test [2] and in test [3] were 17.1 nM and 5770 nM, respectively.

On to `CN(C)C/C=C1\CCN(c2ccc3ncnc(Nc4ccc(Oc5ccc6c(c5)ncn6C)c(F)c4)c3n2)C1=O` [Compound 91, (3E)-3-[2-(dimethylamino)ethylidene]-1-[4-({3-fluoro-4-[(1-methyl-1,3-benzodiazol-5-yl)oxy]phenyl}amino)pyrido[3,2-d]pyrimidin-6-yl]pyrrolidin-2-one], for which the GI50 in test [1] amounted to 2.08 nM. For the same compound, the results for the half-inhibitory concentration (IC50) in test [2] and in test [3] were 18.9 nM and over 10000 nM, respectively.

For `CN(C)C/C=C1\CCN(c2ccc3ncnc(Nc4ccc(Oc5ccc6c(c5)ncn6C)cc4)c3n2)C1=O` [Compound 92, (3E)-3-[2-(dimethylamino)ethylidene]-1-[4-({4-[(1-methyl-1,3-benzodiazol-5-yl)oxy]phenyl}amino)pyrido[3,2-d]pyrimidin-6-yl]pyrrolidin-2-one], in test [1], the GI50 was 3.12 nM. Further, the half-maximal inhibitory concentration (IC50) in test [2] is 21.3 nM; in test [3], over 10000 nM.

Turning to `C=C1CCCN(c2ccc3ncnc(Nc4ccc(Oc5ccn6ncnc6c5)c(C)c4)c3n2)C1=O` [Compound 95, 1-(4-((4-([1,2,4]triazolo[1,5-a]pyridin-7-yloxy)-3-methylphenyl)amino)pyrido[3,2-d]pyrimidin-6-yl)-3-methylenepiperidin-2-one], the GI50 in test [1] worked out at 5.2 nM. The half-maximal inhibitory concentration (IC50) in test [2] amounted to 12.2 nM; in test [3], 476 nM.

With `C=C1CCCN(c2ccc3ncnc(Nc4ccc(Oc5ccc6c(c5)ncn6C)c(C)c4)c3n2)C1=O` [Compound 96, 1-[4-({3-methyl-4-[(1-methyl-1,3-benzodiazol-5-yl)oxy]phenyl}amino)pyrido[3,2-d]pyrimidin-6-yl]-3-methylidenepiperidin-2-one], in test [1], the GI50 came out at 18.6 nM. The IC50 in test [2] was 22.8 nM; in test [3] it was 794 nM.

The record behind these values is patent publication US20240116921A1, “LACTAM (HETERO)[…] DERIVATIVES AS INHIBITORS OF ERBB2” (EnLiven Therapeutics, Inc., priority 2020, published 2024).
